Entries after “also recorded” stand apart in the source; their conditions may differ.
Legend:
[1] = test system: pancreatic afferent neurons / spinal segments T8-T10; assay: c-FOS expression in spinal cord segments after pancreatic intraductal injection; assay type: in vivo, rat
Procedure: Intraductal (pancreatic duct) injection. To administer the necessary peptides directly into the rat pancreatic duct we followed a modified protocol, previously described by Kim et al. (1996). In brief, rats were anesthetized i.p. with nembutal sodium (Abbot Laboratories, Chicago, Ill.) (50 mg/kg body weight). The peritoneum was incised to expose the duodenum and the duodenal loop was pulled out. The pancreatic duct entering the duodenum was identified under dissecting microscope and a small niche was made into the duct with a 30-gauge needle. A polyethylene 10 tubing (0.61 mm outer diameter) (Becton Dickinson and Company, Franklin Lakes, N.J.) was guided into the duct and tied to secure its position. The common bile duct was ligated close to the liver to prevent entry of the injected substance into the liver. Similarly the duct was ligated near its entry into the duodenum. The position of the tube into the pancreatic duct was confirmed by freely flowing bile through the tubing. […] Thirty minutes later Capsaicin 0.5 mg/kg (total volume 500 μl) or vehicle (1×PBS, 10% ETOH, 1% Tween) was injected to half of the AcPep or CoPep injected rats. Three rats were included in each treatment group (n=3 for number of experiments). The tubing was carefully removed and bile flow from the liver into the duodenum was re-established. The abdominal cavity was closed with sutures. Rats were sacrificed 2.5 hrs after the initial injection.
C-fos staining. Rats were anesthetized with sodium pentobarbital (50 mg/kg i.p.) and perfused with 200 mls PBS followed by 500 mls ice-cold freshly prepared 4% paraformaldehyde in PBS. Spinal cord (level T5-T13) was removed, post-fixed in 4% paraformaldehyde for 18 hrs at 4° C. and placed in PBS (pH 7.4) containing 30% sucrose for 24 hrs at 4° C. Frozen sections (40 μm) were cut on a cryostat and stored as floating sections in PBS at 4° C. Every third section was stained for c-fos with a rabbit polyclonal serum, 1:1000 dilution, (c-fos, Ab-5, Oncogene Research Products) utilizing manufacturer's protocol. Antibody staining was visualized using a biotinylated secondary antisera and Vectastain ABC peroxidase kit with DAB as substrate. Sections were mounted on Superfrost Plus slides (VWR Scientific, West Chester, Pa.) and dehydrated. The number of c-FOS immunoreactive (IR) neurons were counted in 10 randomly chosen sections per segment under brightfield illumination and then averaged.
Statistics. Release data are presented as the mean± standard error of the mean (SEM) of wells from three separate experiments. […] Intraductal injection studies were analyzed using a repeated measure ANOVA and individual means were compared using a Newman-Keuls multiple comparison test. […]

PAR-2 = biological target: T1, PAR-2 (Homo sapiens, UniProt P55085); conditions: Blackhart et al. 1996; cited from earlier work
T1 sequence (P55085 26-397): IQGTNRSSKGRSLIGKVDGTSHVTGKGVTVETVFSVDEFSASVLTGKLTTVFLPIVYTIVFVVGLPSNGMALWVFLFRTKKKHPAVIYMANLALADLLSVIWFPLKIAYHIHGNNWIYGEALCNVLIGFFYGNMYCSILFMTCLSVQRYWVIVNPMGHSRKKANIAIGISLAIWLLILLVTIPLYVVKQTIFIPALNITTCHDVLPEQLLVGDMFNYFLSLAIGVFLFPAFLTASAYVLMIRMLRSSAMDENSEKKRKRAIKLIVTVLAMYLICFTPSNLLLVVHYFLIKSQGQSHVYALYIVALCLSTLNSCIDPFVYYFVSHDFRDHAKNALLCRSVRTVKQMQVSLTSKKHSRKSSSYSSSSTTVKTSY

PAR-1 = biological target: T2, PAR-1 (Homo sapiens, UniProt P25116); conditions: Blackhart et al. 1996; cited from earlier work
T2 sequence (P25116 22-425): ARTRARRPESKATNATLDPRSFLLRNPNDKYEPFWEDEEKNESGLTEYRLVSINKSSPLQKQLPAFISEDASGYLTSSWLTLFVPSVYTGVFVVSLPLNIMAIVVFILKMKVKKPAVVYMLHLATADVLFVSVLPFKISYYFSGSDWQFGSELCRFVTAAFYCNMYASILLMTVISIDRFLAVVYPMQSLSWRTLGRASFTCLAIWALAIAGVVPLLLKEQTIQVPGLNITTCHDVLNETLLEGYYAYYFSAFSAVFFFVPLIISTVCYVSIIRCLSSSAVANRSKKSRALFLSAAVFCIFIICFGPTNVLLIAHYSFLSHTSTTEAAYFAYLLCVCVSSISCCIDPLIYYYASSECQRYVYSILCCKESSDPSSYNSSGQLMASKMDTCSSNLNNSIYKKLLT

Substance: SLIGRL (PEPTIDE (1)..(6) PAR-2 activating peptide; listed as Rattus sp.) [AcPep]
- c-FOS IR neurons in segments T8-T10, peptide alone ([1]; 100 μM infused into the pancreatic duct, 2.5 hours, compared to CoPep): more c-FOS IR neurons; also recorded: does increase c-FOS expression
- c-FOS expression in spinal segments T8-T10, peptide alone ([1]; intraductal injection of AcPep 10 μM, 2.5 hours later, compared to control rats): significantly increased
- Capsaicin-evoked c-FOS expression in segments T8-T10 ([1]; peptide 100 μM intraductal, followed 30 min later by Capsaicin 0.5 mg/kg, 2.5 hours): more c-FOS; also recorded: enhanced Capsaicin-evoked c-FOS expression
- activation of PAR-2 (PAR-2): only activates PAR-2
- activation of PAR-1 (PAR-1): does not activate PAR-1
